In US20220265658A1, “PHARMACEUTICAL COMPOSITION COMPRISING A TETRAHYDROPYRAZOLOPYRIMIDINONE COMPOUND” (Idorsia Pharmaceuticals Ltd., priority 2019, published 2022):
Blank lines part the entries; values can stand above or below the compound they belong to.

How the values were obtained:
[1] = Stability testing of solid COMPOUND (powder in glass vial, HPLC 1 area vs reference stored at -20° C.); assay type: physicochemical; conditions: 260 nm
Method: Samples were directly analyzed by HPLC without dilution (expected concentration 1000 μg/mL). The HPLC area of each treated sample was compared to the HPLC area of the reference samples.
HPLC system: High pressure mixing Shimadzu Prominence (HPLC_08_DAD); Flow: 1.5 mL/min; Column temperature: 50° C.; Autosampler temperature: 25° C.; Injection volume: 3.0 μL; Column: Waters XBridge BEH C18 2.5 μm 2.1*50 mm Column XP; Wavelength: DAD 260 nm

[2] = Gravimetric vapour sorption (GVS) hygroscopicity; assay type: physicochemical; conditions: 25° C., mass change 40% to 80% RH, first adsorption scan
Method: Measurements are performed on a multi sample instrument SPS-100n (ProUmid, Ulm, Germany) operated in stepping mode at 25° C. The sample is allowed to equilibrate at 40% RH before starting a pre-defined humidity program (40-0-95-0-95-40% RH, steps of 5% ARH and with a maximal equilibration time of 24 hours per step are applied). About 20 to 30 mg of each sample is used. The hygroscopic classification is done on the basis of the European Pharmacopeia Technical Guide (1999, page 86), e.g., Non-hygroscopic: increase in mass is less than 0.2% mass/mass; slightly hygroscopic: increase in mass is less than 2% and equal to or greater than 0.2% mass/mass; hygroscopic: increase in mass is less than 15% and equal to or greater than 2% mass/mass. The mass change between 40% relative humidity and 80% relative humidity in the first adsorption scan is considered.

C5AR1 = molecular target: T1, C5AR1 (Homo sapiens, UniProt P21730); experiment: In vitro assay: CHO-K1 C5AR1 beta-arrestin cell line (PathHunter), antagonism of C5a; assay type: cell-based; conditions: 1-10 nM C5a agonist; geometric mean; read-out: antagonistic activity (IC50)
T1 construct: host or cells: CHO-K1
T1 sequence (P21730 1-350): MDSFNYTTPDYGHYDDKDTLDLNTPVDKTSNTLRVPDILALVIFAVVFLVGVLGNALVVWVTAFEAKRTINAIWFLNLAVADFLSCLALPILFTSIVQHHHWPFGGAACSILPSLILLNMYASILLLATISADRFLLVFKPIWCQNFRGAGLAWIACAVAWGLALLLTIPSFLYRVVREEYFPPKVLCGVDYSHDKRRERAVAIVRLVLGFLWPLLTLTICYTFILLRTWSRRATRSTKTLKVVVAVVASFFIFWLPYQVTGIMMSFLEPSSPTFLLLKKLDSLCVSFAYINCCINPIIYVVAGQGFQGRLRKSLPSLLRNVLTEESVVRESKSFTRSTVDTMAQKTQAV
Method: Adherent cells (CHO-K1 C5AR1 beta-arrestin cell line, DiscoverX, CA USA) are washed with PBS, detached by incubation with Dissociation Buffer (Gibco Cat #13151-014, 2 ml per 165 cm2 dish) for 3 minutes, then washed with 10 ml PBS (without Mg++ and Ca++) and counted. 7500 cells/384-well are seeded in 384-well plates (Cell culture plate MTP384 white Polystyrene, Corning, Cat #3570) in 20 μl/well Cell plating medium (F12 HAMs/10% FCS/1% P/S) and incubated at 37° C./5% CO2/24 h.
5 μl Antagonist at 6-fold end concentration or DMSO control is added to assay medium and subsequently 5 μl 1-10 nM C5a agonist at 6 fold end concentration. Cells are centrifuged for 1 min at 1000 rpm and incubated for 1.5 hour in at 37° C. Plates are equilibrated at room temperature for several minutes before adding 12 μl/well Detection Reagent (PathHunter Detection Kit, DiscoverX, Cat #93-0001). Plates are centrifuged for 1 min at 1000 rpm and incubated for 45 minutes at RT before being measured on a Fluostar Optima, BMG Labtech. IC50 values are calculated from a serial dilution range of antagonist using inhouse software and given in nmol/l.
The calculated IC50 values may fluctuate depending on the daily cellular assay performance. Fluctuations of this kind are known to those skilled in the art. Average IC50 values from several measurements are given as geometric mean values.

[3] = log P measured in octanol/phosphate buffer saline pH 7.4; assay type: physicochemical
Excerpt: […]

HPLC 1 area compared to a reference that was stored at −20° C. for the same amount of time ([1]; closed vial for 30 days at 40° C. and 75% relative humidity): 79% | HPLC 1 area compared to a reference that was stored at −20° C. for the same amount of time ([1]; closed vial for 30 days at room temperature and day light exposure): 57%
Structure (SMILES): Cc1cccc(F)c1N1CCC(N2Cc3cn(CC(C)(F)F)nc3N(Cc3ccccc3C(F)(F)F)C2=O)CC1 [Amorphous, 2-(2,2-Difluoro-propyl)-5-[1-(2-fluoro-6-methyl-phenyl)-piperidin-4-yl]-7-(2-trifluoromethyl-benzyl)-2,4,5,7-tetrahydro-pyrazolo[3,4-d]pyrimidin-6-one]

HPLC 1 area compared to a reference that was stored at −20° C. for the same amount of time ([1]; closed vial for 30 days at 40° C. and 75% relative humidity, listed as Form 1): 100% | HPLC 1 area compared to a reference that was stored at −20° C. for the same amount of time ([1]; closed vial for 30 days at room temperature and day light exposure, listed as Form 1): 100% | Hygroscopicity as measured by GVS [2]: non-hygroscopic
Structure (SMILES): Cc1cccc(F)c1N1CCC(N2Cc3cn(CC(C)(F)F)nc3N(Cc3ccccc3C(F)(F)F)C2=O)CC1 [COMPOUND in crystalline form 1, 2-(2,2-Difluoro-propyl)-5-[1-(2-fluoro-6-methyl-phenyl)-piperidin-4-yl]-7-(2-trifluoromethyl-benzyl)-2,4,5,7-tetrahydro-pyrazolo[3,4-d]pyrimidin-6-one]

IC50 (C5AR1): 11 nM | logP [3]: 6.9
Structure (SMILES): Cc1cccc(F)c1N1CCC(N2Cc3cn(CC(C)(F)F)nc3N(Cc3ccccc3C(F)(F)F)C2=O)CC1 [COMPOUND, 2-(2,2-Difluoro-propyl)-5-[1-(2-fluoro-6-methyl-phenyl)-piperidin-4-yl]-7-(2-trifluoromethyl-benzyl)-2,4,5,7-tetrahydro-pyrazolo[3,4-d]pyrimidin-6-one]
